{
  "source": "PubChem BioAssay AID588611",
  "about": "(Sanford-Burnham Center for Chemical Genomics, 2011)",
  "note": "Calls of active or inactive are those of the source.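 The calls were made as follows: active = mean EC50 below 100 µM; inactive = the rest.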",
  "data": [
    {"molecular_target": "Intestinal-type alkaline phosphatase (Homo sapiens) (UniProt P09923)", "sequence (P09923 whole entry, looked up)": "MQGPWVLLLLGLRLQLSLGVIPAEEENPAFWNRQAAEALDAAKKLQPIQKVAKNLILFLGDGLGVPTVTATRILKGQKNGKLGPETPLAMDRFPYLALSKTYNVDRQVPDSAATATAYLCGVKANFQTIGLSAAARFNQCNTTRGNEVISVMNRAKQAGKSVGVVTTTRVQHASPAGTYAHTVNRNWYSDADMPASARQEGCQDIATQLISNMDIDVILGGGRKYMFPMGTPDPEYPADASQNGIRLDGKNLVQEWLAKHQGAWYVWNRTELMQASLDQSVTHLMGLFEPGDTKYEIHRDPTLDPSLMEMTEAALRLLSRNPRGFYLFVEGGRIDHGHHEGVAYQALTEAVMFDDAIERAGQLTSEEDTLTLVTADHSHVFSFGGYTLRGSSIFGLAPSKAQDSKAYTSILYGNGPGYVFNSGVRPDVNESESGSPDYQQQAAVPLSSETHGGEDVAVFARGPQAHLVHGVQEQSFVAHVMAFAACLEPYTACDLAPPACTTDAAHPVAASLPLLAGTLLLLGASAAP", "assay": "activation of human intestinal alkaline phosphatase – biochemical, luminescence, set 2, selectivity assay for mouse IAP activator project, SAR follow-up (AID 588611)", "details": "purified human IAP, CDP-Star luminescence, 30 min", "values": [
      {"molecule": "CN(C)S(=O)(=O)c1cccc(NC(=S)NCC(c2ccccc2)c2ccccc2)c1", "EC50": "39.4 µM"},
      {"molecule": "CN(C)S(=O)(=O)c1cccc(NC(=S)NCCN2CCCC2)c1", "EC50": "> 100 µM (inactive)"},
      {"molecule": "CCN(CC)CCCNC(=S)Nc1cccc(S(=O)(=O)N(C)C)c1", "EC50": "> 100 µM (inactive)"},
      {"molecule": "CN(CCc1ccccn1)C(=S)Nc1cccc(S(=O)(=O)N(C)C)c1", "EC50": "> 100 µM (inactive)"},
      {"molecule": "O=S(=O)(c1ccc(NC(=S)NCC(c2ccccc2)c2ccccc2)cc1)N1CCCC1", "EC50": "58.5 µM"},
      {"molecule": "CN(C)S(=O)(=O)c1ccc(NC(=S)NCc2ccc(Cl)cc2)cc1", "EC50": "> 100 µM (inactive)"},
      {"molecule": "CN(C)S(=O)(=O)c1cccc(NC(=S)NCCc2ccccc2)c1", "EC50": "> 100 µM (inactive)"},
      {"molecule": "CC1CCN(S(=O)(=O)c2ccc(NC(=S)NCC(c3ccccc3)c3ccccc3)cc2)CC1", "EC50": "> 100 µM (inactive)"},
      {"molecule": "CN(C)S(=O)(=O)c1ccc(NC(=S)NC(c2ccccc2)c2ccccc2)cc1", "EC50": "62.4 µM"},
      {"molecule": "O=S(=O)(c1ccc(NC(=S)NC(c2ccccc2)c2ccccc2)cc1)N1CCCCC1", "EC50": "68.7 µM"},
      {"molecule": "CCN(CC)S(=O)(=O)c1ccc(NC(=S)NC(c2ccccc2)c2ccccc2)cc1", "EC50": "63.7 µM"},
      {"molecule": "CN(C)S(=O)(=O)c1cccc(NC(=S)NCCCN2CCCC2=O)c1", "EC50": "> 100 µM (inactive)"},
      {"molecule": "O=S(=O)(c1ccc(NC(=S)NCC(c2ccccc2)c2ccccc2)cc1)N1CCCCC1", "EC50": "72.1 µM"},
      {"molecule": "CN(C)S(=O)(=O)c1ccc(NC(=S)NCCc2cccc(Br)c2)cc1", "EC50": "73.7 µM"},
      {"molecule": "COc1ccc(CNC(=S)Nc2ccc(S(=O)(=O)N3CCCCC3)cc2)cc1OC", "EC50": "> 100 µM (inactive)"},
      {"molecule": "Cc1ccccc1CNC(=S)Nc1ccc(S(=O)(=O)N(C)C)cc1", "EC50": "> 100 µM (inactive)"},
      {"molecule": "COc1ccc(CCNC(=S)Nc2ccc(S(=O)(=O)N3CCCCC3)cc2)cc1OC", "EC50": "> 100 µM (inactive)"},
      {"molecule": "O=S(=O)(c1ccc(NC(=S)NCCC(c2ccccc2)c2ccccc2)cc1)N1CCCC1", "EC50": "62.2 µM"},
      {"molecule": "O=S(=O)(c1ccc(NC(=S)NCc2cccc(F)c2)cc1)N1CCCCC1", "EC50": "76.8 µM"},
      {"molecule": "CN(C)S(=O)(=O)c1cccc(NC(=S)NCCc2cccc(F)c2)c1", "EC50": "> 100 µM (inactive)"},
      {"molecule": "CN(C)S(=O)(=O)c1cccc(NC(=S)NC(c2ccccc2)c2ccccc2)c1", "EC50": "34 µM"},
      {"molecule": "CC1CCN(S(=O)(=O)c2ccc(NC(=S)NCCC(c3ccccc3)c3ccccc3)cc2)CC1", "EC50": "53.1 µM"},
      {"molecule": "CC(CCc1ccccc1)NC(=S)Nc1cccc(S(=O)(=O)N(C)C)c1", "note": "(centres undefined)", "EC50": "69.4 µM"},
      {"molecule": "CN(C)S(=O)(=O)c1cccc(NC(=S)NCCc2ccc(F)cc2)c1", "EC50": "> 100 µM (inactive)"},
      {"molecule": "Cc1ccc(S(=O)(=O)N(C)C)cc1NC(=S)NC1CCN(Cc2ccccc2)CC1", "EC50": "> 100 µM (inactive)"},
      {"molecule": "O=c1c2ccccc2[nH]c(=S)n1-c1cccc(S(=O)(=O)N2CCCC2)c1", "EC50": "> 100 µM (inactive)"},
      {"molecule": "CN(C)S(=O)(=O)c1ccc(NC(=S)NCCN2CCCC2)cc1", "EC50": "> 100 µM (inactive)"},
      {"molecule": "CN(C)CCCNC(=S)Nc1cccc(S(=O)(=O)N(C)C)c1", "EC50": "> 100 µM (inactive)"},
      {"molecule": "COc1cccc(CCNC(=S)Nc2cccc(S(=O)(=O)N(C)C)c2)c1", "EC50": "82 µM"},
      {"molecule": "COc1ccc(CCNC(=S)Nc2ccc(S(=O)(=O)N3CCCCC3)cc2)cc1", "EC50": "77.2 µM"},
      {"molecule": "O=C(NC(=S)Nc1cc(S(=O)(=O)N2CCOCC2)ccc1N1CCOCC1)c1ccco1", "EC50": "> 100 µM (inactive)"},
      {"molecule": "CC1CCN(S(=O)(=O)c2ccc(NC(=S)NC(c3ccccc3)c3ccccc3)cc2)CC1", "EC50": "> 100 µM (inactive)"},
      {"molecule": "CN(C)S(=O)(=O)c1cccc(NC(=S)NCCCn2ccnc2)c1", "EC50": "> 100 µM (inactive)"},
      {"molecule": "CN(C)S(=O)(=O)c1cccc(NC(=S)NCCc2cccc(Br)c2)c1", "EC50": "65 µM"},
      {"molecule": "Cc1ccc(S(=O)(=O)N(C)C)cc1NC(=S)NC(=O)C12CC3CC(CC(C3)C1)C2", "EC50": "> 100 µM (inactive)"},
      {"molecule": "Cc1ccc(S(=O)(=O)N(C)C)cc1NC(=S)NC(C)CCCC(C)C", "note": "(centres undefined)", "EC50": "58 µM"},
      {"molecule": "CN(C)S(=O)(=O)c1ccc(NC(=S)NCCc2cccc(O)c2)cc1", "EC50": "> 100 µM (inactive)"},
      {"molecule": "COc1cccc(CNC(=S)Nc2ccc(S(=O)(=O)N(C)C)cc2)c1", "EC50": "> 100 µM (inactive)"},
      {"molecule": "COc1ccccc1CNC(=S)Nc1ccc(S(=O)(=O)N(C)C)cc1", "EC50": "> 100 µM (inactive)"},
      {"molecule": "CN(C)S(=O)(=O)c1cccc(NC(=S)NCCC(=O)N2CCCC2)c1", "EC50": "> 100 µM (inactive)"},
      {"molecule": "Cc1ccc(S(=O)(=O)N(C)C)cc1NC(=S)NC(C)CCC(C)C", "note": "(centres undefined)", "EC50": "66.6 µM"},
      {"molecule": "O=C(NC(=S)Nc1cc(S(=O)(=O)N2CCOCC2)ccc1O)c1ccco1", "EC50": "> 100 µM (inactive)"},
      {"molecule": "CN(C)S(=O)(=O)c1cccc(NC(=S)NCCc2cccc(O)c2)c1", "EC50": "> 100 µM (inactive)"},
      {"molecule": "CCN(CC)c1ccc(C(=O)NC(=S)Nc2cc(S(=O)(=O)N3CCOCC3)ccc2-n2cncn2)cc1", "EC50": "> 100 µM (inactive)"},
      {"molecule": "CN(C)CC(C)(C)CNC(=S)Nc1cccc(S(=O)(=O)N(C)C)c1", "EC50": "> 100 µM (inactive)"},
      {"molecule": "CC1CC(NC(=S)Nc2cccc(S(=O)(=O)N(C)C)c2)CC(C)N1", "note": "(centres undefined)", "EC50": "> 100 µM (inactive)"},
      {"molecule": "CCN(CC)S(=O)(=O)c1ccc(NC(=S)NCCC(c2ccccc2)c2ccccc2)cc1", "EC50": "41.3 µM"},
      {"molecule": "CN(C)S(=O)(=O)c1cccc(NC(=S)NCCC(c2ccccc2)c2ccccc2)c1", "EC50": "> 100 µM (inactive)"},
      {"molecule": "O=S(=O)(c1ccc(NC(=S)NC(c2ccccc2)c2ccccc2)cc1)N1CCCC1", "EC50": "58.2 µM"},
      {"molecule": "Cc1ccc(CNC(=S)Nc2ccc(S(=O)(=O)N(C)C)cc2)cc1", "EC50": "89.6 µM"},
      {"molecule": "CCOc1cc(CCNC(=S)Nc2ccc(S(=O)(=O)N(C)C)cc2)ccc1OC", "EC50": "> 100 µM (inactive)"},
      {"molecule": "O=S(=O)(c1ccc(NC(=S)NCCC(c2ccccc2)c2ccccc2)cc1)N1CCCCC1", "EC50": "53 µM"},
      {"molecule": "Cc1ccc(S(=O)(=O)N(C)C)cc1NC(=S)NCCCn1ccnc1", "EC50": "> 100 µM (inactive)"},
      {"molecule": "CN(C)S(=O)(=O)c1cccc(NC(=S)NC(C)(C)CC(C)(C)C)c1", "EC50": "70.7 µM"},
      {"molecule": "CN(C)S(=O)(=O)c1ccc(NC(=S)NCCc2ccccc2)cc1", "EC50": "> 100 µM (inactive)"},
      {"molecule": "Cc1ccc(CNC(=S)Nc2cccc(S(=O)(=O)N(C)C)c2)cc1", "EC50": "> 100 µM (inactive)"},
      {"molecule": "CN(CCc1ccccc1)C(=S)Nc1cccc(S(=O)(=O)N(C)C)c1", "EC50": "> 100 µM (inactive)"},
      {"molecule": "CN(C)S(=O)(=O)c1cccc(NC(=S)NCCc2ccc(Br)cc2)c1", "EC50": "84.5 µM"},
      {"molecule": "CCN(CC)S(=O)(=O)c1ccc(NC(=S)NCC(c2ccccc2)c2ccccc2)cc1", "EC50": "55.5 µM"},
      {"molecule": "Cc1ccc(C)c(NC(=S)Nc2ccc(S(=O)(=O)N3CCCCC3)cc2)c1", "EC50": "> 100 µM (inactive)"},
      {"molecule": "CN(C)S(=O)(=O)c1cccc(NC(=S)NCc2ccc(Cl)cc2)c1", "EC50": "75.5 µM"},
      {"molecule": "CC(CNC(=S)Nc1cccc(S(=O)(=O)N(C)C)c1)N1CCN(c2ccccc2)CC1", "note": "(centres undefined)", "EC50": "> 100 µM (inactive)"},
      {"molecule": "CN(C)S(=O)(=O)c1ccc(NC(=S)NCCC(c2ccccc2)c2ccccc2)cc1", "EC50": "57.2 µM"},
      {"molecule": "O=C(CCc1ccccc1)NC(=S)Nc1cccc(S(=O)(=O)N2CCCC2)c1", "EC50": "> 100 µM (inactive)"}
    ]}
  ]
}
